Measured values as given in ChEMBL document CHEMBL2073871, “Human P-glycoprotein transports cortisol, aldosterone, and dexamethasone, but not progesterone” (J Biol Chem, 1992).

What was measured:
[1] = molecular target: T1, ATP-dependent translocase ABCB1 (Homo sapiens, UniProt P08183); experiment: TP_TRANSPORTER: transepithelial transport (basal to apical) in MDR1-expressing LLC-PK1 cells; assay type: functional, cell-based; conditions: pig
[2] = molecular target: T1, ATP-dependent translocase ABCB1; experiment: TP_TRANSPORTER: inhibition of Cortisol transepithelial transport (basal to apical) (Cortisol: 0.011? uM, Progesterone: 50 uM) in MDR1-expressing LLC-PK1 cells; assay type: functional, cell-based; conditions: pig, llc-pk1, 50 µM

T1 sequence (P08183 whole entry): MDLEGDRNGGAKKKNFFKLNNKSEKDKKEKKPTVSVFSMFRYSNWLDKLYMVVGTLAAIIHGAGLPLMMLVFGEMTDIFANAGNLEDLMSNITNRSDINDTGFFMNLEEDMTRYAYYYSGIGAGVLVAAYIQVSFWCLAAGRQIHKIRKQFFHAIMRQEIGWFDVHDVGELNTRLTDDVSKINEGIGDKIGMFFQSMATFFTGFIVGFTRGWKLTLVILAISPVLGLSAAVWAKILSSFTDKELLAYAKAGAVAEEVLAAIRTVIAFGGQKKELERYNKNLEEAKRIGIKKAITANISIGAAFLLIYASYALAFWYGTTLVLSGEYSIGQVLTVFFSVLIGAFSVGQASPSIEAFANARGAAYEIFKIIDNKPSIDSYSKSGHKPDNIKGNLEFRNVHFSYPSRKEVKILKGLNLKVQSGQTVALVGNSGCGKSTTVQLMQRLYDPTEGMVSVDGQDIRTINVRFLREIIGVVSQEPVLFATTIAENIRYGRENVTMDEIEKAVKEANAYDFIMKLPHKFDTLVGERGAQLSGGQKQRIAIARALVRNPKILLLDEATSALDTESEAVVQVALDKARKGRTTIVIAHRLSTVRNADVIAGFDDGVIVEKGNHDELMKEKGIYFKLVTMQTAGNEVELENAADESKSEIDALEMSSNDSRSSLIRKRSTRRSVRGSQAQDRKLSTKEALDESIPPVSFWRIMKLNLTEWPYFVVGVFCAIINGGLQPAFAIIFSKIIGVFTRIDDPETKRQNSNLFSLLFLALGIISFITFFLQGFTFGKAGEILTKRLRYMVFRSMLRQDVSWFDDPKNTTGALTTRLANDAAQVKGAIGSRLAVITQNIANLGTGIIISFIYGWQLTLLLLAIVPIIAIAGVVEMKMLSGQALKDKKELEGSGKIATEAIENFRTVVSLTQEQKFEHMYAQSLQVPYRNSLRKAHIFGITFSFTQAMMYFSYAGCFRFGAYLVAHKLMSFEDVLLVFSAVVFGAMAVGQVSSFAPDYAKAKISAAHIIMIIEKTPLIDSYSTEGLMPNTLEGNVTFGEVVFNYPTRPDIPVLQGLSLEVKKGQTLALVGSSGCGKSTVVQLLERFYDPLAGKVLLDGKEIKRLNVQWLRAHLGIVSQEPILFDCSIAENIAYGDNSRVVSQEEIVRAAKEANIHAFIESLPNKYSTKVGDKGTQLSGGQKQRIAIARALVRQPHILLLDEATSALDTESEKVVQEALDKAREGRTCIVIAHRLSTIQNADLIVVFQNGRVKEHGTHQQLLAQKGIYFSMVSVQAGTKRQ

Activity [1]	Structure (SMILES)	Activity [2]
substrate [+]	C[C@]12CCC(=O)C=C1CC[C@@H]1[C@@H]2[C@@H](O)C[C@]2(C=O)[C@@H](C(=O)CO)CC[C@@H]12 [ALDOSTERONE]	
substrate [+]	C[C@]12CCC(=O)C=C1CC[C@@H]1[C@@H]2[C@@H](O)C[C@@]2(C)[C@H]1CC[C@]2(O)C(=O)CO [HYDROCORTISONE]	

Structure (SMILES)	Activity [1]	Activity [2]
CC(=O)[C@H]1CC[C@H]2[C@@H]3CCC4=CC(=O)CC[C@]4(C)[C@H]3CC[C@]12C [PROGESTERONE]	is not a substrate [-]	inhibitor [+]
